How the values were obtained:
Type in all cases: functional, cell-based
HCT-116 = test: Inhibitory concentration value against human colon carcinoma H-116 tumor cell line
A549 = test: Inhibitory concentration value against human A-549 tumor cell line
HT-29 = test: Inhibitory concentration value against human colon adenocarcinoma HT-29 tumor cell line
P388 = test: Inhibitory concentration value against murine P-388 tumor cell line; conditions: Mus musculus
SK-MEL-28 = test: Inhibitory concentration value against human MEL-28 tumor cell line
[1] = Inhibitory concentration value against human MEL-28 or human cancer HeLa tumor cell line
HL-60 = test: Inhibitory concentration value against human colon carcinoma H-116 or human cancer HL-60 tumor cell line

Row | IC50 (HCT-116) [µM] | IC50 (A549) [µM] | IC50 (HT-29) [µM] | IC50 (P388) [µM] | IC50 (SK-MEL-28) [µM] | IC50 [1] [µM] | IC50 (HL-60) [µM] | SMILES
1 | > 5 | > 5 | > 5 | > 5 | > 5 | – | – | CC(=O)Oc1ccc(/C=C/c2ccc3ccccc3c2)cc1
2 | > 5 | > 5 | > 5 | > 5 | > 5 | – | – | Cc1ccc(/C=C\c2ccc3ccccc3c2)cc1
3 | – | > 5 | > 5 | > 5 | – | > 5 | > 5 | COc1cc(/C=C\c2ccc3c(ccn3S(=O)(=O)c3ccccc3)c2)cc(OC)c1OC
4 | – | 3.09 | 3.09 | 3.09 | – | 3.09 | 3.09 | COc1cc(/C=C\c2cn(C)c3ccccc23)cc(OC)c1OC
5 | > 5 | > 5 | > 5 | > 5 | > 5 | – | – | FC(F)(F)Oc1ccc(/C=C/c2ccc3ccccc3c2)cc1
6 | 1.82 | 1.82 | > 5 | > 5 | > 5 | – | – | COc1ccc(/C=C/c2ccc3ccccc3c2)cc1N
7 | > 20 | > 20 | 3.28 | > 20 | > 20 | – | – | COc1ccc(/C=C\c2ccc3ccccc3c2)cc1[N+](=O)[O-]
8 | > 5 | 3.53 | > 5 | > 5 | > 5 | – | – | Cn1ccc2cc(/C=C/c3ccc4ccccc4c3)ccc21
9 | > 5 | > 5 | > 5 | > 5 | > 5 | – | – | O=S(=O)(c1ccccc1)n1ccc2cc(/C=C/c3ccc4ccccc4c3)ccc21
10 | > 5 | > 5 | > 5 | > 5 | > 5 | – | – | C(=C/c1ccc2[nH]ccc2c1)/c1ccc2ccccc2c1
11 | 0.36 | > 20 | 1.82 | 1.82 | > 20 | – | – | COc1ccc(/C=C\c2ccc3ccccc3c2)cc1N
12 | > 5 | > 5 | > 5 | > 5 | > 5 | – | – | FC(F)(F)c1ccc(/C=C/c2ccc3ccccc3c2)cc1
13 | – | 3.23 | 3.23 | 3.23 | – | 3.23 | 3.23 | COc1cc(/C=C\c2c[nH]c3ccccc23)cc(OC)c1OC
14 | > 5 | > 5 | > 5 | > 5 | > 5 | – | – | COc1ccc(/C=C/c2ccc3ccccc3c2)cc1C(=O)CN

Continued, compound first:

Row | SMILES | IC50 (HCT-116) [µM] | IC50 (A549) [µM] | IC50 (HT-29) [µM] | IC50 (P388) [µM] | IC50 (SK-MEL-28) [µM] | IC50 [1] [µM] | IC50 (HL-60) [µM]
15 | FC(F)(F)Oc1cccc(/C=C\c2ccc3ccccc3c2)c1 | 3.5 | 3.5 | 3.5 | 3.5 | 3.5 | – | –
16 | FC(F)(F)c1ccc(/C=C\c2ccc3ccccc3c2)cc1 | > 5 | > 5 | > 5 | > 5 | > 5 | – | –
17 | CN(C)c1ccc(/C=C\c2ccc3ccccc3c2)cc1 | 3.66 | 3.66 | 3.66 | 3.66 | 3.66 | – | –
18 | COCCOc1cc(/C=C\c2ccc3ccccc3c2)ccc1OC | 2.99 | 2.99 | 2.99 | 2.99 | 2.99 | – | –
19 | C(=C/c1ccc2ccccc2c1)/c1ccoc1 | > 5 | > 5 | > 5 | > 5 | > 5 | – | –
20 | C(=C\c1ccco1)/c1ccc2ccccc2c1 | > 5 | > 5 | > 5 | > 5 | > 5 | – | –
21 | C(=C\c1ccc2ccccc2c1)/c1ccc2c(c1)-c1ccccc1C2 | > 5 | > 5 | > 5 | > 5 | > 5 | – | –
22 | Cc1ccc(/C=C/c2ccc3ccccc3c2)cc1 | > 5 | > 5 | > 5 | > 5 | > 5 | – | –
23 | COCCOc1cc(/C=C/c2ccc3ccccc3c2)ccc1OC | > 5 | 2.99 | > 5 | 2.99 | 2.99 | – | –
24 | Cn1ccc2cc(/C=C\c3ccc4ccccc4c3)ccc21 | > 5 | > 5 | > 5 | > 5 | > 5 | – | –
25 | COc1cc(/C=C\c2ccc(N(C)C)c([N+](=O)[O-])c2)cc(OC)c1OC | – | > 5 | > 5 | > 5 | – | > 5 | > 5
26 | COc1ccc(/C=C/c2ccc3ccccc3c2)cc1 | > 5 | > 5 | > 5 | > 5 | > 5 | – | –
27 | C(=C/c1cccc2ccccc12)/c1ccc2ccccc2c1 | 3.57 | 3.57 | 3.57 | 3.57 | 3.57 | – | –
28 | CN(C)c1ccc(/C=C/c2ccc3ccccc3c2)cc1 | 3.66 | 3.66 | 3.66 | 3.66 | 3.66 | – | –
29 | Oc1ccc(/C=C/c2ccc3ccccc3c2)cc1 | 4.06 | 4.06 | 4.06 | 4.06 | 4.06 | – | –
30 | COc1cc(/C=C\c2cn(C(C)=O)c3ccccc23)cc(OC)c1OC | – | 2.85 | 2.85 | 2.85 | – | 2.85 | 2.85
31 | COc1ccc(/C=C/c2ccc3ccccc3c2)cc1F | > 5 | > 5 | > 5 | 4.49 | > 5 | – | –
32 | CCN(CC)c1cc(/C=C/c2ccc3ccccc3c2)ccc1OC | > 5 | > 5 | > 5 | > 5 | > 5 | – | –
33 | C(=C/c1ccc2ccccc2c1)/c1ccc2c(c1)-c1ccccc1C2 | > 5 | > 5 | > 5 | > 5 | > 5 | – | –
34 | C(=C\c1ccc2ccccc2c1)/c1ccoc1 | > 5 | > 5 | > 5 | > 5 | > 5 | – | –
35 | COc1cc(/C=C/c2occc2C)cc(OC)c1OC | – | 3.65 | 3.65 | 3.65 | – | 3.65 | 3.65
36 | O=S(=O)(c1ccccc1)n1ccc2cc(/C=C\c3ccc4ccccc4c3)ccc21 | > 5 | > 5 | > 5 | > 5 | > 5 | – | –
37 | COc1ccc(/C=C/c2ccc3ccccc3c2)cc1[N+](=O)[O-] | > 5 | > 5 | > 5 | > 5 | > 5 | – | –
38 | Cn1c2ccccc2c2cc(/C=C\c3ccc4ccccc4c3)ccc21 | > 5 | > 5 | > 5 | > 5 | > 5 | – | –
39 | Cn1c2ccccc2c2cc(/C=C/c3ccc4ccccc4c3)ccc21 | > 5 | > 5 | > 5 | > 5 | > 5 | – | –
40 | C(=C/c1ccco1)/c1ccc2ccccc2c1 | > 5 | > 5 | > 5 | > 5 | > 5 | – | –
41 | COc1ccc(/C=C\c2ccc3ccccc3c2)cc1C(=O)CN | > 5 | 1.58 | > 5 | > 5 | > 5 | – | –
